Source: patent US12564568B2, “PKC pathway in Parkinson's Disease” (CEDARS-SINAI MEDICAL CENTER, priority 2018, dated 2026)
Entries after “also recorded” stand apart in the source; their conditions may differ.

Legend:
LAMP1 = LAMP1 level in day 30 mDA cultures after PEP005 (western blot); format: cell-based, human
DaN cultures = test: LDH on drug treatment of DaN cultures; format: cell-based, human
Excerpt: It is likely that the toxicity of PEP is more specific to highly proliferative cells whereas the Inventors' differentiated neurons are largely post mitotoic.

SNCA = SNCA gene expression over PEP005 time-course (qPCR); format: cell-based, human; details: 4 hours after PEP005 treatment
Procedure: (§1) qPCR: Total cellular RNA was isolated using TRIzol Reagent followed by Qiagen RNeasy Mini kit with DNase treatment. Total RNA (1 μg) was used for cDNA synthesis using the Quantitate Reverse Transcription Kit for cDNA synthesis for PCR (Qiagen). Real-time PCR was performed using the SYBR Green Supermix (BIO-RAD). The levels of expression of respective genes were normalized to corresponding GAPDH values and shown as fold change relative to the value of the control sample (ΔΔCt method)

TH [1] = test: TH gene expression over PEP005 time-course (qPCR); format: cell-based, human; details: roughly 8 hours after initial exposure
Procedure: as §1

TH [2] = test: Injection into the ventricles of WT mice, TH in striatum; format: in vivo, mouse; details: 0.3, 3, and 30 uM injected into ventricles of WT mice; 1 and 5 days post injection
Procedure: In vivo, PEP stimulates synuclein degradation. Dosage studies of 0.3, 3, and 30 uM PEP was injected into the ventricles of WT mice.

[3] = In vitro blood plasma binding, rat; format: in vitro ADME
Excerpt: (§2) This may complicate IV delivery.

[4] = In vitro blood plasma binding, rabbit; format: in vitro ADME
Excerpt: as §2

[5] = In vitro blood plasma binding, mini pig; format: in vitro ADME
Excerpt: as §2

[6] = In vitro blood plasma binding, human; format: in vitro ADME
Excerpt: as §2

[7] = IV bolus dose study, respiratory effects in rat; format: in vivo; details: doses up to 10 ug/kg
Excerpt: (§3) In multiple IV bolus dose studies, the following was observed.

[8] = IV bolus dose study, cardiovascular effects in mini-pig; format: in vivo; details: doses up to 5 ug/kg (highest tested)
Excerpt: as §3

[9] = Dose ranging study in mini-pig; format: in vivo; details: pigs
Procedure: For dose ranging studies in rat and mini-pig. Repeated doses up to 15 ug/kg/day for 7 days were tolerated in rats, 5 ug/kg in pigs

[10] = Repeat dose tox study in rats; format: in vivo, rat; details: up to 10 ug/kg/day for 7 days, IV tail vein injection
Procedure: (§4) In a repeat dose tox study in rats—animals were given up to 10 ug/kg/day for 7 days by IV tail vein injection. […] In a repeat dose tox study in mini-pigs—animals were given up to 5 ug/kg/day IV approximately 1×/week.

[11] = Repeat dose tox study in mini-pigs; format: in vivo, mini-pig; details: 5 ug/kg dose IV approximately 1x/week, intake recovered afterwards
Procedure: as §4

α-synuclein [12] = test: α-synuclein protein level in day 30 iPSC-derived mDA (DaN) cultures after drug treatment (western blot, immunostaining); format: cell-based, human; details: in vitro, single 24-hour dose
PKC C1 domains = details: cited from earlier work
α-synuclein [13] = test: Unilateral striatal injection in wild-type C57BL/6 mice, α-synuclein in striatum (western blot, IHC); details: 215 ng dose, 3 days post-treatment

Question: Which LAMP1 protein (LAMP1; PD cells treated with PEP005) does the source give for `C/C=C(/C)C(=O)O[C@H]1C(C)=C[C@]23C(=O)[C@@H](C=C(CO)[C@@H](O)[C@]12O)[C@H]1[C@@H](C[C@H]3C)C1(C)C` [PEP005, ingenol-3-angelate] here?
Answer: The LAMP1 protein was “does not appear to be replicated”.

Question: And the LAMP1 protein (LAMP1; PD cells treated with PEP005, listed as PEP)?
Answer: Its LAMP1 protein is “neither LAMP1 nor LC3 respond”.

Question: What about the LAMP1 protein (LAMP1; control and PD cells / all iPSC lines, 1 μM PEP005 for 3 days) of the same molecule?
Answer: The LAMP1 protein was “increase”.

Question: And the LAMP1 protein (LAMP1; control cells treated with PEP005)?
Answer: Its LAMP1 protein is “increase”.

Question: And the “LDH on drug treatment” value (DaN cultures)?
Answer: The value was “nor do the Inventors see an increase”.

Question: And the “SNCA expression (qPCR)” value (SNCA)?
Answer: Its value is “downregulated”.

Question: And the “TH expression (qPCR)” value (TH [1])?
Answer: The value was “upregulated”.

Question: What about the “TH in mouse striatum” value (TH [2]) of the same molecule?
Answer: Its value is “increase”.

Question: What about the plasma binding [3] of the same molecule?
Answer: The plasma binding was “highly efficient plasma binding”.

Question: What about the plasma binding [4] of the same molecule?
Answer: Its plasma binding is “highly efficient plasma binding”.

Question: And the plasma binding [5]?
Answer: Its plasma binding is “highly efficient plasma binding”.

Question: And the plasma binding [6]?
Answer: Its plasma binding is “highly efficient plasma binding”.

Question: And the respiratory effects [7]?
Answer: The respiratory effects was “no biologically relevant responses”.

Question: What about the cardiovascular changes [8] of the same molecule?
Answer: The cardiovascular changes was “no notable cardiovascular changes”.

Question: What about the “clinical or behavioral effects” value [8] of the same molecule?
Answer: Its value is “no adverse clinical or behavioral effects”.

Question: And the tolerated repeated dose [9]?
Answer: The tolerated repeated dose was no more than 5 µg/kg.

Question: And the tolerability [10]?
Answer: The tolerability was “well tolerated”.

Question: And the food intake [11]?
Answer: The food intake was “lower food intake the following day”.

Question: And the “p-PKCα signal (western blot)” value (p-PKCα; control and PD cultures / all iPSC lines, 1 μM PEP005 for 3 days)?
Answer: Its value is “completely ablate; also recorded: completely ablating; also recorded: clearly ablated”.

Question: What about the “p-PKCα expression, dose response” value (p-PKCα; dose response study, 172iPD mDA culture) of the same molecule?
Answer: Its value is “clear dose-response relationship”.

Question: And the “p-PKCα levels at low PEP005 doses” value (p-PKCα; dose response study, low doses)?
Answer: Its value is “did not alter”.

Question: And the “time post dose at which pPKCα levels were still depressed” value (p-PKCα; in vitro, single 24-hour dose)?
Answer: Its value is no less than 240 hours.

Question: What about the “time until p-PKCα is degraded in response to drug treatment” value (p-PKCα; time-course, control and PD cultures) of the same molecule?
Answer: Its value is no more than 24 h.

Question: And the “duration for which synuclein levels remained depressed” value (α-synuclein [12])?
Answer: The value was 168 h.

Question: And the “affinity for PKC C1 domains” value (PKC C1 domains)?
Answer: The value was “subnanomolar”.

Question: And the “α-synuclein levels in striatum, injected (L) relative to contralateral side (R)” value (α-synuclein [13])?
Answer: Its value is “significantly reduced; also recorded: reduces”.
